Results: patent US20060234909A1, “Compositions and methods for increasing drug efficiency” (priority 2003, published 2006)
Primed or numbered codes have the meaning given here. * marks the point of attachment. 3Am‑VBL = vinblastine (VBL) conjugate; PEG(11) = PEG(11) linker; PEG(29) = PEG(29) linker; 3Am = not defined here; Cbz = O=C(OCc1ccccc1)*; Piv = CC(C)(C)C(=O)*; VBL = vinblastine

Legend:
[1] = tested on: HT-29 colorectal carcinoma; experiment: Cytotoxicity assay (monolayer), HT-29; format: cell-based; conditions: HT29, ML (monolayer); read-out: HT29 (EC50 Ave) ML;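 further: monolayer cultures tested in triplicate, compound exposure for three days against DMSO vehicle controls, EC50 fitted from dose-response curves and averaged across all tests and lots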
HT-29 cells = conditions: read-out: HT29 (EC50 Ave) SA; HT29, SA (soft agar)
[2] = tested on: Normal human foreskin fibroblasts (HFF); conditions: read-out: HFF (EC50 Ave) ML; HFF, ML (monolayer)
HUVEC = experiment: Cytotoxicity assay (monolayer), HUVEC; format: cell-based; conditions: ML (monolayer), read-out: HUVEC (EC50 Ave) ML
MCF-7 breast carcinoma = experiment: Cytotoxicity assay (monolayer), MCF-7; format: cell-based; conditions: MCF7, ML (monolayer); read-out: MCF7 (EC50 Ave) ML;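 further: cells treated 72 h with 6-8 compound doses versus DMSO vehicle controls, EC50 fitted by 4-parameter dose-response curves, averaged across all tests and lots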
MCF-7 cells = conditions: read-out: MCF7 (EC50 Ave) SA; MCF7, SA (soft agar)
tubulin = experiment: Fluorescence-based tubulin polymerization assay (MPA; enhancement for paclitaxel, inhibition for vinblastine); format: biochemical
Text: Drug-linker constructs may further be screened using functional assays predictive of biological activity. […] Tubulin assembly or inhibition thereof may be monitored by fluorescence using the CytoDYNAMIX Screen™ 10 kit available from Cytoskeleton (1830 S. Acoma St., Denver, Colo.). […] Emission is monitored at 405 nm with excitation at 360 nm. […] Tubulin assembly or inhibition may also be monitored by light scattering which is approximated by the apparent absorption at 350 nm. For paclitaxel drug conjugates BSA is employed to prevent aggregation and glycerol, which is a tubulin polymerization enhancer, is omitted from the kit to increase the signal to noise ratio.
The assay kit (#BK011) was purchased from Cytoskeleton (Denver, Colo.). The assays were carried out according to the manufacturer's instructions, except that 1 mg/ml BSA (Sigma #A3059) was included in all assays. […] Parent drugs and conjugates were tested at 0.75, 1.5, 3 and 10 micromolar final concentration and results represent a comparison of conjugate and parent drug curves obtained from the linear range of the dose responses.
(±SD) represent the average of all tests carried out for all lots of a given compound.

Human Src = target: T1, Human Src (Homo sapiens, UniProt P12931); experiment: Src kinase assay (PKLight ATP utilization, substrate phosphorylation as % of parent peptide); format: biochemical
T1 construct: purchased Upstate (Charlottesville, Va.) 14-326
Procedure: Another test may involve monitoring the consumption of ATP. For example, ATP concentrations at time 0 or after 4 hour incubation may be monitored by luciferase reaction (PKLight kit obtained from Cambrex Corporation, One Meadowlands Plaza, East Rutherford, N.J. 07073), which generate a luminescence readout in the presence of ATP. Assays are initiated by mixing a kinase and a peptide in the presence of 40 μM ATP. After 4 hour of incubation at 30° C., PKLight reagent is added and mixed well, and luminescence readout measured. The rate of peptide phosphorylation is then directly related to the rate of decrease in the observed luminescence. Based on the first test, linkers of appropriate lengths and peptides with an effective amount of kinase activity which may be expected to be retained in the drug conjugate may be found.
Human Src (#14-326) and Akt (#14-276) kinases were purchased from Upstate (Charlottesville, Va.). Kinase reactions were carried out in 50 μl kinase reaction cocktail (25 mM Tris-HCl, pH 7.5, 5 μM β-glycerophosphate, 2 mM DTT, 0.1 mM Na3VO4, 10 mM MgCl2, 1 mg/ml BSA, […], 0.5 to 1.0 units enzyme). Substrates (peptide or drug-peptide conjugate in […]) were added (25, 50 and 100 μM) and the reaction was incubated for 2-5 hours at 30° C. PKLight reagent (23 μl) (Cambrex BioSciences, Rockland, Me.) was mixed with […] of the above kinase reaction and ATP utilization relative to no substrate and no ATP controls was determined by measuring luminescence with a SpectraMax Gemini EM plate reader (Molecular Devices, Sunnyvale, Calif.). Peptide substrates for Src and Akt have been described. For examples, see Lou et al. Letters in Peptide Science, 2, 289-296 (1995); Lou et al. Bioorganic & Medicinal Chemistry, 4, 677-682 (1996); Alessi et al. FEBS Letters, 399, 333-338 (1996). Substrate phosphorylation potential was determined from the linear portion of the substrate concentration dose response as a percentage of the activity observed with the parent peptide used for drug conjugation.

Compound	EC50 [1] [nM]	EC50 (HT-29 cells) [nM]	EC50 [2] [nM]	EC50 (HUVEC) [nM]	EC50 (MCF-7 breast carcinoma) [nM]	EC50 (MCF-7 cells) [nM]	Ave. MPA Act. (tubulin)	Average src kinase activity (Human Src)
CC(=O)O[C@@]12CO[C@@H]1C[C@H](O)[C@@]1(C)C(=O)[C@H](O)C3=C(C)[C@@H](OC(=O)[C@H](O)[C@@H](NC(=O)c4ccccc4)c4ccccc4)C[C@@](O)([C@@H](OC(=O)c4ccccc4)[C@H]21)C3(C)C [10 Deacetyl Taxol]	< 20	< 20	< 20	< 20	20 to 100	< 20	–	–
CC[C@]1(O)C[C@@H]2CN(CCc3c([nH]c4ccccc34)[C@@](C(=O)OC)(c3cc4c(cc3OC)N(C)[C@H]3[C@@](O)(C(=O)OC)[C@H](O)[C@]5(CC)C=CCN6CC[C@]43[C@@H]65)C2)C1 [Desacetyl vinblastine]	< 20	< 20	< 20	< 20	< 20	< 20	C (C>80)	–
CBz-E(Bzl)YIFGSFK(BOC)-PEG(11)-3Am-VBL	> 100	–	> 100	> 100	< 20	–	A (A<50)	A (A<20)
CBz-RPRTSSF-PEG(11)-3Am-VBL (N-CBz; PEG(11) linker; vinblastine conjugate)	< 20	–	–	–	< 20	20 to 100	–	–
CBz-YIFGSFK-PEG(11)-3Am-VBL (N-CBz; PEG(11) linker; vinblastine conjugate)	> 100	–	> 100	> 100	> 100	–	B (B=50-80)	A (A<20)
CBz-YIYGSFK(CBz)-PEG(11)-3Am-VBL (Cbz-YIYGSFK(Cbz)-{PEG(11)-3Am-VBL}; reading uncertain; also: printed as CBz-YIYGSFK(CBz)-PEG(11)-3Am-VBL)	> 100	–	20 to 100	20 to 100	20 to 100	–	B (B=50-80)	A (A<20)
CH3O(CH2CH2O)3CH2CH2(C═)YIYGSFH-PEG(11)-3Am-VBL (N-methoxy-PEG acyl; PEG(11); vinblastine conjugate)	> 100	–	> 100	> 100	> 100	–	B (B=50-80)	C (C>40)
CH3O(CH2CH2O)3CH2CH2(C═O)YIYGSFS-PEG(11)-3Am-VBL (N-methoxy-PEG acyl; PEG(11); vinblastine conjugate)	> 100	–	> 100	> 100	> 100	–	C (C>80)	C (C>40)
H-GIYWHHY-PEG(11)-3Am-VBL (H-GIYWHHY-{PEG(11)-3Am-VBL}; reading uncertain)	> 100	–	> 100	> 100	> 100	–	B (B=50-80)	B (B=20-40)
H-YIYGSFK-PEG(11)-3Am-VBL (H-YIYGSFK-{PEG(11)-3Am-VBL}; reading uncertain)	> 100	–	20 to 100	> 100	> 100	–	B (B=50-80)	C (C>40)
H-YIYGSFK-PEG(29)-3Am-VBL x 2TFA (H-YIYGSFK-{PEG(29)-3Am-VBL}; reading uncertain; also: 2TFA salt)	20 to 100	–	20 to 100	> 100	< 20	–	A (A<50)	A (A<20)
Pv-EYIYGSFR-PEG(11)-3Am-VBL (Piv-EYIYGSFR-{PEG(11)-3Am‑VBL})	> 100	–	> 100	> 100	> 100	–	C (C>80)	C (C>40)
